Read-outs that look alike come from different tables or passages of the source.
Key:
Format in all cases: cell-based
[1] = system: A673; assay: Hits validation, dose-response cell proliferation (CellTiter-Glo)
Description: (§1) For hits validation and combination study, cells were harvested and aliquoted into 384-well plates at concentrations of 750–1,500 cells per well in a total of 20 μl/well using a Matrix Wellmate (Thermo Scientific). Five μl of culture media containing either vehicles or drug were added to each well the next day (drug concentrations range from 1 nmol/L to 50 μmol/L). For combination study, selected drugs were archived in robotically accessible plates, to which media was added in preparation for addition to master plates by a Nimbus 96 liquid-dispensing workstation (Hamilton). Liquid transfers to dilution and assay plates were handled using the same workstation. Each 384-well master plate contained four 9 by 9 dose-matrix blocks, with eight serial two-fold dilutions (concentrations range from 7.8 nmol/L to 1 μmol/L). Additional wells were reserved for untreated, and vehicle-treated control wells. Cell proliferation was evaluated using Cell-Titer Glo® reagents (Promega). IC50 values were determined for each drug using SigmaPlot (Systat Software). The combination index values were calculated using SigmaPlot (Systat Software) and CompuSyn.

[2] = system: CHLA-258; assay: as above
Description: as §1

[3] = system: COG-E-352; assay: as above
Description: as §1

[4] = system: Hs 822.T.; assay: as above
Description: as §1

[5] = system: Hs 863.T.; assay: as above
Description: as §1

[6] = system: RD-ES; assay: as above
Description: as §1

[7] = system: SK-ES-1; assay: as above; conditions: 12-point dose-response 50 μmol/L to 1 nmol/L, mean ± SD
Description: as §1

[8] = system: TC-71; assay: as above
Description: as §1

[9] = system: Hs 919.T.; assay: as above
Description: These drugs were chosen based on their known mechanisms and safety profiles. We also tested the synergy between these drug hits (Supplementary Figures S6–S11). […] We evaluated the anti-proliferation effect in combination treatments using the EWS and control cell lines.
as §1

[10] = system: A673; assay: In vitro high-throughput screen of FDA-approved drug library (CellTiter-Glo); conditions: 1 μmol/L drug, 72 hours; for inhibition at 1 µM: Homo sapiens, A673, read-out: % Inhibition A673
Description: (§2) We screened, in parallel to the three computational approaches, an FDA-approved drug library containing 2,316 drugs (1,536 unique chemical entities). […] The drug screening study protocol employed is summarized in Supplementary Table S1.
(§3) Cells were grown to 80–90% confluence, harvested and aliquoted into 384-well plates (black μClear microplates, Greiner bio-one, Germany) at concentrations of 750–1,500 cells per well in a total volume of 25 μl/well using a Matrix Wellmate (Thermo Scientific). Cells were cultured for 72 hours in a 5% CO2 atmosphere at 37°C. Aliquots of 25 μl CellTiter-Glo® Reagent (Promega) were added directly to each well, the plates were incubated at room temperature for 20 min and the luminescence signal was measured according to the manufacturer's protocol. The measurements were made using Infinite® M200 Pro plate reader (Tecan, Switzerland). […] Data were normalized to percentage inhibition. […]
(§4) (A) Color scale for drug inhibition values. […]

[11] = system: Hs 919.T.; assay: as above; conditions: 1 μmol/L drug, 72 hours, control cell line; for inhibition at 1 µM: read-out: % Inhibition Hs 919.T.
Description: as §2, §3, §4

[12] = system: RD-ES; assay: as above; conditions: 1 μmol/L drug, 72 hours; for inhibition at 1 µM: RD-ES, read-out: % Inhibition RD-ES
Description: as §2, §3, §4

[13] = system: SK-ES-1; assay: as above; conditions: 1 μmol/L drug, 72 hours; for inhibition at 1 µM: Homo sapiens, SK-ES1, read-out: % Inhibition SK-ES-1
Description: as §2, §3, §4

[14] = 12-point dose-response 50 μmol/L to 1 nmol/L, mean ± SD
[15] = control cell line, 12-point dose-response, mean ± SD

| Compound | inhibition at 1 µM [10] [%] | inhibition at 1 µM [11] [%] | inhibition at 1 µM [12] [%] | inhibition at 1 µM [13] [%] | further results |
| --- | --- | --- | --- | --- | --- |
| CC(=O)[C@H]1CC[C@H]2[C@@H]3CCC4=CC(=O)CC[C@]4(C)[C@H]3CC[C@]12C [Progesterone] |  |  |  |  | IC50 ([1]; Homo sapiens, A673, 12-point dose-response 50 μmol/L to 1 nmol/L, mean ± SD): > 50 µM; IC50 [2, 14]: 11.5 ± 5.31 µM; IC50 [3, 14]: 24.9 ± 5.85 µM; IC50 [4, 15]: > 50 µM; IC50 [5, 15]: > 50 µM; IC50 ([6]; RD-ES, 12-point dose-response 50 μmol/L to 1 nmol/L, mean ± SD): > 50 µM; IC50 ([7]; Homo sapiens, SK-ES1): > 50 µM; IC50 ([8]; TC-71, 12-point dose-response 50 μmol/L to 1 nmol/L, mean ± SD): > 50 µM; IC50 [9, 15]: > 50 µM |
| CN1C[C@H](CO)C=C2c3cccc4[nH]cc(c34)C[C@H]21 [Lysergol] |  |  |  |  | IC50 [1, 14]: > 50 µM; IC50 [2, 14]: > 50 µM; IC50 [3, 14]: > 50 µM; IC50 [4, 15]: > 50 µM; IC50 [5, 15]: > 50 µM; IC50 [6, 14]: > 50 µM; IC50 [7]: > 50 µM; IC50 [8, 14]: > 50 µM; IC50 [9, 15]: > 50 µM |
| Nc1nc(Cl)nc2c1ncn2[C@@H]1O[C@H](CO)[C@@H](O)[C@@H]1F [Clofarabine] | 93 | < 50 | 99 | 98 |  |
| NC(=O)N/N=C/c1ccc([N+](=O)[O-])o1 [Nitrofural/Nitrofurazone, Nitrofurazone] | 52 | < 50 | 52 | 72 |  |
| (R)-Apomorphine |  |  |  |  | IC50 [1]: 8.52 ± 2.14 µM; IC50 [2]: 14.7 ± 6.86 µM; IC50 [3]: 4.01 ± 1.55 µM; IC50 [4]: 14.3 ± 1.47 µM; IC50 [5]: 15.2 ± 2.19 µM; IC50 [6]: 7.85 ± 1.69 µM; IC50 [8]: 17.3 ± 2.21 µM; IC50 [9]: 16.7 ± 3.02 µM |
| CCCCC/C=C\C/C=C\C/C=C\C/C=C\CCCC(=O)Nc1ccc(O)cc1 [AM 404] |  |  |  |  | % Inhibition A673 [10]: 65%; % Inhibition Hs 919.T. [11]: < 50%; % Inhibition RD-ES [12]: < 50%; % Inhibition SK-ES-1 [13]: < 50% |
| COC(=O)Nc1nc2ccc(Sc3ccccc3)cc2[nH]1 [Fenbendazole] | 75 | < 50 | 86 | 78 |  |
| CCOC(=O)C1=C[C@@H](OC(CC)CC)[C@H](NC(C)=O)[C@@H](N)C1 [Oseltamivir] | 95 | < 50 | 95 | 98 |  |
| CO[C@H]1C[C@@H]2CC[C@@H](C)[C@@](O)(O2)C(=O)C(=O)N2CCCC[C@H]2C(=O)O[C@H]([C@H](C)C[C@@H]2CC[C@@H](O)[C@H](OC)C2)CC(=O)[C@H](C)/C=C(\C)[C@@H](O)[C@@H](OC)C(=O)[C@H](C)C[C@H](C)/C=C/C=C/C=C/1C [Rapamycin] | 67 | < 50 | 62 | 51 |  |
| O=c1[nH]c(=O)n([C@H]2C[C@H](O)[C@@H](CO)O2)cc1F [Floxuridine] | 68 | < 50 | 92 | 56 |  |
| N[C@@H](Cc1ccc(N(CCCl)CCCl)cc1)C(=O)O [Melphalan] | < 50 | < 50 | 95 | 91 |  |
| COC(=O)Nc1nc2ccc(C(=O)c3ccccc3)cc2[nH]1 [Mebendazole] | 94 | < 50 | 95 | 96 |  |
| S=c1[nH]cnc2nc[nH]c12 [Mercaptopurine] | < 50 | < 50 | < 50 | 57 |  |

From publication PMC5354814, “In silico and in vitro drug screening identifies new therapeutic approaches for Ewing sarcoma” (Oncotarget, 2016)
